From US11639368B2, “Method for preventing and treating hyperpermeability” (Apeptico Forschung UND E[…], priority 2009, dated 2023)
Entries after “also recorded” stand apart in the source; their conditions may differ.

What was measured:
[1] = tested on: arterial endothelial cells; assay: Reactive oxygen molecules in endothelial cells under oxygen deficiency, measured by EPR; type: cell-based; conditions: oxygen deficiency (0.1% oxygen, hypoxic gas mixture), 50 μg/ml of peptide
Experimental: Cell Culture of Endothelial Cells
For the generation of reactive oxygen molecules, arterial endothelial cells were cultivated in an oxygen-deficient gas mixture of 0.1% oxygen, 5% […] and 94.9% nitrogen (hypoxic gas mixture). In control experiments, the gas concentrations were 21% oxygen, 5% […] and 74% nitrogen (normoxic gas mixture).
After 90 minutes under oxygen-deficient conditions, the endothelial cells were cultivated with 21% oxygen for a further 30 minutes. Thereafter, 20 μl of a solution consisting of 20 uM 1-hydroxy-3-methoxycarbonyl-2,2,5,5-tetramethylpyrrolidine HCl (CHM), 20 μM DPBS, 25 μM desferrioxamine and 5 μM diethyldithiocarbamate as well as 2 μl of DMSO were added to the cells.
Trypsinization of the Cells.
Following cell culture, the cells were individualized in a manner common in the laboratory by adding a trypsin solution. The endothelial cells were washed and suspended in 35 μl of a solution consisting of DPBS and 25 μM desferrioxamine and 5 μM diethyldithiocarbamate.
Measurement of the Electron Paramagnetic Resonance (EPR)
The determination of the electron paramagnetic resonance (EPR), also called electron spin resonance, serves the investigation of paramagnetic substances, e.g. for detection of unpaired electrons in reactive oxygen molecules (radicals of the oxygen). […]

influenza A virus = assay: Course of disease in mice with viral lung infection; type: in vivo, BALB/c mice; conditions: influenza A infected mice
Experimental: The following animal study groups were examined in respect of the effect of peptide SEQ ID No. 1 on a viral lung infection:
Group 1. Negative control (PBS via nasal).
Group 2. Positive control (infection with approx. 2,000 units of influenza A virus via nasal).
Group 3. Test group (infection with approx. 2,000 units of influenza A virus via nasal, as well as intratracheal administration of 10 μg of peptide SEQ ID No. 1).
In each group, 6 BALB/c mice were used.
The following treatment scheme was followed:
Group 1: Administration of PBS via nasal.
Group 2: Infection of the mice with influenza virus A via nasal.
Group 3: Infection of the mice with influenza virus A via nasal and administration of peptide SEQ ID No. 1.
Days of treatment 0, 2, 4, 6, 8:
Group 1: Intratracheal administration of PBS.
Group 2: Intratracheal administration of PBS.
Group 3: Intratracheal administration of peptide SEQ ID No. 1.
Days of treatment 0 to 10:
Daily observation of body temperature, body weight and survival rate of the test animals.

[2] = tested on: epithelial sodium channel (ENaC); assay: Expression of the epithelial sodium channel by real-time PCR in H441 cells; type: cell-based, human; conditions: 50 μg/ml of peptide, H441 epithelial cells of the lungs
Experimental: (§1) Human epithelial cells of the lungs of type H441 were acquired from the company ATTC.
Epithelial cells of the lungs of type H441 were cultivated in a manner common in the laboratory in a commercial RPMI 1640 medium with the additives 2 mM L-glutamine, 1.5 g/l of sodium carbonate, 4.5 g/l of glucose, 10 mM HEPES buffer pH 7.4, 10% bovine serum.
Verification of the Expression of the Epithelial Sodium Channel
In the cultivated epithelial cells, the expression of the sodium channel (ENaC) was determined by means of “real-time PCR”.

[3] = tested on: hyperpermeability of the lungs of mice; assay: Pneumolysin-induced hyperpermeability and acute lung damage in mice (Evans blue, leukocytes in bronchoalveolar liquid); conditions: 250 ng of pneumolysin and 50 μg of peptide per mouse intratracheal, 5.5 hours
[4] = Lavage-induced large animal ARDS model; type: in vivo, pigs
Experimental: Material & methods: With the consent of the competent animal protection commission, lung damage was induced in two pigs (25 kg) under general anesthesia by surfactant depletion (four-time bronchoalveolar lavage, 30 ml/kg of body weight each). Subsequently, 1 mg/kg of body weight AP301 (peptide SEQ ID No. 1) was endotracheally applied. Animal 1 (1) received a deep tracheal injection of the overall dose, while for animal 2 (2), nebulization of the same dosage over 30 min was performed. Thereafter, there was a five-hour ventilation period. The arterial oxygen partial pressure (paO2) was recorded using an intra-aortic real-time measuring probe (FOXY, Ocean Optics, USA) validated in advance. Spirometry and hemodynamics were permanently registered as well as measurements with the PiCCO technology performed at half-hour intervals.
The ventilation settings were constantly kept in the non-protective range (Pmax 40 mbar, tidal volume≥10 ml/kg of body weight, PEEP≤10 mbar, frequency 25-35/min) in order to avoid therapeutic effects. […] 162.8 mmHg (1) or 224.6 mmHg (2), respectively. With nebulization of AP301, this occurred delayed compared to the deep tracheal application, however, it was more pronounced.

myosin light chain = assay: Phosphorylation of the myosin light chain (protein blot, densitometry); type: cell-based; conditions: human endothelial lung cells; for increase in the content of phosphorylated myosin light chain by listeriolysin: 250 ng/ml of listeriolysin, 50 μg/ml of peptide
From the text: Human endothelial cells of the lungs, isolated from capillaries of the lungs, were acquired from the company Lonza.
(§2) The microbial toxins listeriolysin (LLO) and pneumolysin (PLY) were acquired from the University of Giessen.
Human endothelial cells of the lungs, isolated from capillaries of the lungs, were cultivated in a manner common in the laboratory.
Determination of Phosphorylation of the Myosin Light Chain
For the determination of phosphorylation of the myosin light chain and the influence of the peptide SEQ ID No. 1 on the phosphorylation, the previously cultivated human endothelial cells of the lungs were washed with phosphate buffer pH 7.4, which contained 1 mM orthovanadate. The cell contents was lysed by incubation of the cells with a solution of 20 mM tris buffer (pH 7.4), 150 mM mol/1 of NaCl, 1 mM EDTA, 1 mM EGTA, 1% Triton X-100, 2.5 mM sodiumpyrophosphate, 1 mM betaglycerophosphate, 1 mM sodiumvanadate, 1 μg/ml of leupeptine, 1 mM phenylmethylsulfonylfluoride. In addition, the cells were digested with ultrasound. The cell lysate was centrifuged in order to obtain the soluble components. The soluble cell lysate was subsequently applied to denaturing sodium dodecyl sulfate polyacrylamide gel electrophoresis in a manner common in the laboratory, and the proteins were separated according to their masses. Thereafter, the proteins were transferred onto nitrocellulose membranes. The protein blots were treated with a solution of 0.1% Tween 20 and 5% dry milk powder for 1 hour in a manner common in the laboratory. Subsequently, the protein blots were incubated with antibodies directed against either the myosin light chain or the phosphorylated myosin light chain.
In order to make either the myosin light chain or the phosphorylated myosin light chain visible, the antibodies were made visible on diagnostic film using chemiluminescence in a manner common in the laboratory. The signal strength was determined with densitometry, and the ratio of myosin light chain to phosphorylated myosin light chain was determined.

[5] = tested on: human endothelial cells of the lungs; assay: Toxin-induced hyperpermeability, transendothelial electric resistance (ECIS), endothelial cells; type: cell-based; conditions: 500 ng/ml of listeriolysin, 50 μg/ml of peptide
[6] = tested on: Human epithelial cells of the lungs of type H441; assay: Toxin-induced hyperpermeability, electric resistance (ECIS), epithelial cells; type: cell-based; conditions: 1 μg/ml of listeriolysin, 50 μg/ml of peptide
Experimental: as §1, §2
Epithelial cells of the lungs of type H441 were cultivated in a manner common in the laboratory in a commercial RPMI 1640 medium with the additives 2 mM L-glutamine, 1.5 g/l of sodium carbonate, 4.5 g/l of glucose, 10 mM HEPES buffer pH 7.4, 10% bovine serum. The ECIS experiments took place in serum-free medium.
In order to cause hyperpermeability, i.e. injuries of the endothelial cells and epithelial cells, the human epithelial cells of the lungs as well as the human endothelial cells of the lungs were cultivated in a manner common in the laboratory up to the formation of a continuous cell layer, and subsequently, the toxins listeriolysin or pneumolysin, respectively, were added.

Compound	formation of reactive oxygen molecules by the endothelial cells [1]	reduction of body weight (influenza A virus; 10 μg of peptide intratracheal on days 0, 2, 4, 6, 8, within 10 days)	body temperature after 7 days (influenza A virus; 10 μg of peptide intratracheal, after 7 days) [°C]	mortality after 10 days (influenza A virus; 10 μg of peptide intratracheal, fraction of test animals, 10 days)	body temperature subsequently (after day 7) (influenza A virus; 10 μg of peptide intratracheal, recovery after day 7) [°C]	decrease in body weight (overall conclusion) (influenza A virus; in words)	lowering of the body temperature (overall conclusion) (influenza A virus; in words)	survival rate (overall conclusion) (influenza A virus; in words)	expression of the sodium channel ENaC (mRNA) [2]	number of leukocytes in the bronchoalveolar liquid [3]	toxin-mediated development of hyperpermeability (Evans blue dye in lung tissue) [3]	paO2 increase, max. ([4]; animal 1, 1 mg/kg deep tracheal injection) [mmHg]	paO2 increase, max. ([4]; animal 2, 1 mg/kg nebulization over 30 min) [mmHg]	duration of continuous improvement of oxygenation ([4]; both pigs, 1 mg/kg endotracheally)	reduction of the extra-vascular lung water compared to the initial value following surfactant depletion ([4]; pigs, 1 mg/kg endotracheally, PiCCO)	undesired hemodynamic effects during application of the drug ([4]; pigs, 1 mg/kg of body weight endotracheally)	increase in the content of phosphorylated myosin light chain by listeriolysin (myosin light chain)	content of phosphorylated myosin light chain, peptide alone (myosin light chain; 50 μg/ml of peptide without toxin)	hyperpermeability caused by the toxin listeriolysin (electric resistance) [5]	hyperpermeability caused by the toxin listeriolysin (electric resistance) [6]
C[C@@H]1NC(=O)CNC(=O)[C@H](CCC(=O)O)NC(=O)[C@@H]2CCCN2C(=O)[C@H]([C@@H](C)O)NC(=O)[C@H](CCC(=O)O)NC(=O)[C@H](CCCNC(=N)N)NC(=O)[C@H](CCC(N)=O)NC(=O)CNC(=O)[C@@H](N)CSSC[C@@H](C(=O)O)NC(=O)[C@H](Cc2ccc(O)cc2)NC(=O)[C@H](Cc2c[nH]c3ccccc23)NC(=O)[C@@H]2CCCN2C(=O)[C@H](CCCCN)NC(=O)[C@H](C)NC(=O)[C@H](CCC(=O)O)NC1=O [peptide SEQ ID No. 1, CGQRETPEGAEAKPWYC]	no reactive oxygen molecules are formed	approx. 10%	35	⅓	37	reduces the decrease	reduces the lowering	clearly increased	triplication; also recorded: substantial increase	clear reduction; also recorded: clearly less leukocytes	inhibition	162.8	224.6	about 1.5 hours	15.8-52.5%	no undesired hemodynamic effects	inhibits	no influence	inhibited	inhibited
CGQREAPAGAAAKPWYC [peptide SEQ ID No. 3, reference compound]	does not result in an inhibition								no substantial increase								no influence			
